# Test results taken from patent US9844224B2, “Bitter alkaloid containing consumables comprising bitter blockers” (GIVAUDAN SA, priority 2008, dated 2017).
# How the values were obtained:
# [1] = test system: alkaloid bitterness in cocoa; assay: Tasting panel, sample vs control: reduction of alkaloid bitterness in cocoa; type: in vivo, human; settings: 10% unsweetened cocoa powder in water; for bitterness of sample compared to control: room temperature
# Experimental: (§1) All concentrations in % are % (wt/wt), unless otherwise indicated. A tasting panel of 5 to 8 panelists was asked to compare the bitterness of two samples (sample with trilobatin and control without) of various caffeine-containing consumables.
# (§2) Different concentrations/ranges were tested, with the ones indicated being the ones with a clear bitter masking effect. While higher concentrations reach a bitter masking effect, panelists found a negative impact on the overall flavor profile at higher concentrations.
# A tasting panel of 5 to 8 panelists was asked to compare and record the sensory attribute differences between two samples (sample with trilobatin and control without).
# The control and sample contained 10% unsweetened cocoa powder in water (Dutch processed dark cocoa powder, commercially available from Hersheys), the sample additionally contained 0.0005% trilobatin.
# The samples were served at room temperature.
# A tasting panel of 5 to 8 panelists was asked to compare and record the sensory attribute differences between two samples (sample with HDG and control without).
# The control and sample contained 10% unsweetened cocoa powder in water (Dutch processed dark cocoa powder, commercially available from Hersheys), the sample additionally contained 0.0020% (w/w) HDG.
# [2] = test system: sweet sensitive panelists; assay: Ranking with R-index analysis: isointensity of HDG to sucrose; type: in vivo, human
# Experimental: (§3) All examples were performed with sweet sensitive panelists able to detect at least 0.5% of sucrose or less, unless stated otherwise. The concentration detectable by the average consumer will be higher. The results were obtained using 20 panelists in two replications.
# The sucrose concentration that tastes isointense in sweetness to HDG was determined using samples of 15 ppm and 20 ppm, each of which was directly compared to a sucrose sample (sucrose solutions of 0.5%, 1%, 1.5% and 2% concentration). Fifteen milliliters of each blinded sample was presented, at room temperature, in random order to 20 sweet sensitive panelists. In two replications (over 1 session), panelists were asked to rank the solutions, from least sweet to most sweet. The data was subjected to an R-index analysis.
# [3] = test system: sweet sensitive panelists; assay: Small panel ranking of HDG in water against sucrose solutions; type: in vivo, human
# Experimental: as §3
# Further three small panel testings were performed. HDG samples were prepared in concentrations of 5 ppm, 10 ppm, 15 ppm, and 20 ppm in water. All the samples were coded (presented blind) and given to the panel in random order. The panel was also presented with sucrose solutions for comparison The panel was asked to taste each sample and rank the samples from the least sweet to most sweet.
# [4] = test system: naringin and limonin bitterness; settings: cited from earlier work
# [5] = test system: alkaloid bitterness in brewed black tea; assay: Tasting panel, sample vs control: reduction of alkaloid bitterness in tea; type: in vivo, human; settings: 0.001% trilobatin, warm, most panelists
# Experimental: as §1, §2
# Sample and control were brewed black tea (tea bags, Lipton), the sample additionally contained 0.001% trilobatin which was added to the brewed tea.
# Samples and controls were served warm.
# [6] = test system: alkaloid caffeine bitterness in instant coffee; assay: Tasting panel, sample vs control: reduction of alkaloid bitterness in coffee; type: in vivo, human; settings: instant coffee in water
# Experimental: as §1, §2
# The sample and control were instant coffee (Nescafe, Taster's choice) in water, the sample additionally contained 0.001% (10 ppm) trilobatin. All samples/controls were presented warm to the panelists.
# caffeine bitterness = assay: Tasting panel, sample vs control: reduction of caffeine bitterness in water; type: in vivo, human; settings: 200 ppm caffeine in water
# Experimental: as §1, §2
# The control and sample contained 0.02 or 200 ppm % caffeine in water, the sample additionally contained 0.000125 to 0.0020 trilobatin.
# [7] = test system: sweet sensitive panelists; assay: Ranking method with R-index: isointensity of trilobatin in water to sucrose; type: in vivo, human
# Experimental: (§4) The sweetness detection threshold of trilobatin was determined as detailed below in 1a, 1b and 1c. All examples were performed with sweet sensitive panelists able to detect at least 0.5% of sucrose or less, unless stated otherwise. The concentration detectable by the average consumer will be higher.
# The sensory evaluation was conducted using a ranking method. Samples at ambient temperature were randomly presented in 15 ml blind aliquots (unidentifiable by panelists). Panels consisted of 15 sweet sensitive subjects and samples were presented in 2 replications over 1 session. After tasting each sample, the mouth was rinsed thoroughly with water at ambient temperature prior to tasting the next sample.
# Panelists were presented with 0.5%, 1%, 1.5% and 2% sucrose solutions in water and a fifth sample of 100 ppm trilobatin in water. Subjects were asked to rank the samples from low to high with respect to perceived sweet taste. R-indices were calculated for 100 ppm trilobatin versus either 0.5%, 1%, 1.5% or 2% sucrose.
# The sensory evaluation was conducted using the method described in example 1b. The panels consisted of 7 sweet sensitive panelists. Panelists were presented with 0.5%, 1%, and 1.5% sucrose solutions in water and a fourth sample of 200 ppm trilobatin in water. Panelists were asked to rank the samples from low to high with respect to perceived sweet taste.
# [8] = test system: panelist trained for sweetness detection; assay: Paired comparison of trilobatin in water versus sucrose solutions (sweetness); type: in vivo, human
# Experimental: as §4
# Trilobatin (20 ppm, 60 ppm, 100 ppm) in water samples were evaluated for isointensity to sucrose solutions in a concentration of 0, 0.5 and 1% sucrose using a paired comparison method. Samples were paired and tasted left to right with rinsing (water) in between, by one panelist trained for sweetness detection.
# The trilobatin samples were compared to either 0%, 0.5%, or 1% sucrose solutions.
# [9] = test system: tannin-derived bitterness (tannic acid); assay: Tasting panel, sample vs control: tannin bitterness in water; type: in vivo, human; settings: 0.05%/500 ppm tannic acid in water; 0.000125 to 0.002% trilobatin
# Source text: as §1
# The control and sample contained 0.05%/500 ppm tannic acid in water. The samples additionally contained 0.000125 to 0.002% trilobatin.
# [10] = test system: alkaloid bitterness in caffeine containing energy drinks; assay: Tasting panel, sample vs control: reduction of alkaloid bitterness in an energy drink; type: in vivo, human; settings: Redbull and Xenergy energy drinks, 0.0005% trilobatin
# Experimental: as §1, §2
# The control and sample were caffeine containing energy drinks, the sample additionally contained 0.0005% trilobatin.
# The tested caffeine containing energy drinks were sucrose-sweetened glucoronlactone and taurin containing Redbull™ energy drink, and Xenergy™ (Zyions Inc., USA) which is sucralose/Acesulfame-K sweetened and contains vitamin B, calcium, taurine and glucoronlactone.
smiles,measurement,setting,value
"COc1ccc(CCC(=O)c2c(O)cc(O[C@@H]3O[C@H](CO)[C@@H](O)[C@H](O)[C@H]3O)cc2O)cc1O [HDG, 1-[4-(beta-D-glucopyranosyloxy)-2,6-dihydroxyphenyl]-3-(3-hydroxy-4-methoxyphenyl)-1-propanone]",bitter aftertaste,[1]; 0.0020% (w/w) HDG,bitter aftertaste that remained
same,cocoa aroma,[1]; 0.0020% (w/w) HDG,keep their cocoa aroma
same,"purine alkaloid bitterness (theobromine, caffeine) in the middle",[1]; 0.0020% (w/w) HDG,reduced
same,bitterness of sample compared to control,[1]; 0.0020% (w/w) HDG,less bitter
same,"sample sweetness (HDG, 15 ppm)",[2]; vs 0.5% sucrose,sweeter
same,"sample sweetness (HDG, 20 ppm)",[2]; vs 0.5% sucrose,Sweeter
same,"sample sweetness (HDG, 15 ppm)",[2]; vs 1.0% sucrose,less sweet
same,"sample sweetness (HDG, 20 ppm)",[2]; vs 1.0% sucrose,Isosweet
same,"sample sweetness (HDG, 15 ppm)",[2]; vs 1.5% sucrose,less sweet
same,"sample sweetness (HDG, 20 ppm)",[2]; vs 1.5% sucrose,Less sweet
same,"sample sweetness (HDG, 15 ppm)",[2]; vs 2.0% sucrose,less sweet
same,"sample sweetness (HDG, 20 ppm)",[2]; vs 2.0% sucrose,Less sweet
same,Rank and taste,[3]; 5 ppm HDG in water,1 - not sweet
same,Isointensity to sucrose,[3]; 10 ppm HDG in water,0.5 % sucrose
same,Rank and taste,[3]; 10 ppm HDG in water,2 - very slightly sweet
same,Isointensity to sucrose,[3]; 15 ppm HDG in water,0.75% sucrose
same,Rank and taste,[3]; 15 ppm HDG in water,3 - slightly sweet
same,Rank and taste,[3]; 20 ppm HDG in water,4 - sweet
same,sweetness threshold detected by sweet sensitive individuals,[3]; HDG in water,about 10 ppm
same,sweet taste detection threshold relative to that of trilobatin,[3]; in vivo,about 10 times less
same,suppression of naringin and limonin bitterness,[4]; concentrations at or below the sweet taste detection threshold of HDG,not
same,naringin and limonin bitterness,[4]; high suprathreshold concentration (ratio taste units sweetener to bitter compound at least 2:1),suppress
"O=C(CCc1ccc(O)cc1)c1c(O)cc(O[C@@H]2O[C@H](CO)[C@@H](O)[C@H](O)[C@H]2O)cc1O [trilobatin, 1-[4-(beta-D-glucopyranosyloxy)-2,6-dihydroxyphenyl]-3-(4-hydroxyphenyl)-1-propanone]",alkaloid bitterness in the middle and towards the end of the temporal bitterness profile,[1]; 0.0005% trilobatin,markedly reduced
same,bitter aftertaste,[1]; 0.0005% trilobatin,no bitter aftertaste
same,cocoa aroma,[1]; 0.0005% trilobatin,keep their cocoa aroma
same,bitterness of sample compared to control,[1]; 0.0005% trilobatin,less bitter
same,bitterness of sample compared to control,[5],slightly less bitter
same,concentration at which suppression of coffee flavor starts,[6],about 20 ppm
same,concentration at which the coffee flavor is significantly affected,[6],≥ 50 ppm
same,alkaloid caffeine bitterness in the middle and towards the end of the temporal bitterness profile,[6]; 0.001% (10 ppm) trilobatin,markedly reduced
same,bitter aftertaste,[6]; 0.001% (10 ppm) trilobatin,no bitter aftertaste
same,bitterness of sample compared to control,"[6]; 0.001% (10 ppm) trilobatin, warm",less bitter
same,caffeine bitterness reduced compared to the control,caffeine bitterness; 0.000125% (1.25 ppm) trilobatin,not
same,caffeine bitterness compared to the control,caffeine bitterness; 0.0005% (5 ppm) up to 0.0020 (20 ppm) trilobatin,reduced
same,"sample sweetness (trilobatin, 100 ppm)",[7]; vs 0.5% sucrose,Isosweet
same,"sample sweetness (trilobatin, 100 ppm)",[7]; vs 1.0% sucrose,Less sweet
same,"sample sweetness (trilobatin, 100 ppm)",[7]; vs 1.5% sucrose,Less sweet
same,"sample sweetness (trilobatin, 100 ppm)",[7]; vs 2.0% sucrose,Less sweet
same,Taste of trilobatin samples compared to sucrose,[8]; 20 ppm trilobatin in water vs 0% sucrose,isosweet
same,Taste of trilobatin samples compared to sucrose,[8]; 20 ppm trilobatin in water vs 0.5% sucrose,notably less sweet
same,Taste of trilobatin samples compared to sucrose,[8]; 60 ppm trilobatin in water vs 0% sucrose,weakly sweeter
same,Taste of trilobatin samples compared to sucrose,[8]; 60 ppm trilobatin in water vs 0.5% sucrose,less sweet
same,Taste of trilobatin samples compared to sucrose,[8]; 100 ppm trilobatin in water vs 0% sucrose,sweeter
same,Taste of trilobatin samples compared to sucrose,[8]; 100 ppm trilobatin in water vs 0.5% sucrose,isosweet
same,Taste of trilobatin samples compared to sucrose,[8]; 100 ppm trilobatin in water vs 1% sucrose,less sweet
same,bitterness of samples and control,[9],similarly bitter
same,bitter aftertaste,[10],slight bitter aftertaste remains
same,bitterness in the middle of the temporal pattern,[10],very effectively blocked
same,bitterness of sample compared to control,[10],less bitter
